Assay results taken from paper PMC4769084, “Aminoglycoside binding and catalysis specificity of aminoglycoside 2″-phosphotransferase IVa: A thermodynamic, structural and kinetic study” (Biochimica et Biophysica Acta, 2016).
Like-named read-outs stand apart in the source and are kept apart here.

Experiments:
[1] = biological target: T1, APH(2″)-IVa (Enterococcus casseliflavus, UniProt O68183); assay: Isothermal titration calorimetry of aminoglycoside binding
Procedure: The enzyme was extensively dialyzed against buffer containing 50 mM Tris–HCl at pH 7.5, 40 mM KCl, 1 mM MgCl2 and ligand solutions were prepared at 5 mM in the final dialysate with readjusting pH to 7.5. The enzyme was used at a final concentration of 150 μM. ITC experiments were carried out at 25 °C in a VP-ITC calorimeter (MicroCal, GE Healthcare). Titrations consisted of 40 injections of 5 μL of ligand every 300 s. The cell stirring speed was 300 rpm. To obtain reliable dissociation constants, the c-value, a unitless parameter obtained by the multiplication of the association constant and the total concentration of ligand binding sites, was kept between 1.8 and 100 for all titrations. Control runs were performed by titrating ligands to buffer, and the resulting background signal was subtracted from the corresponding experimental data. Experiments were carried out at 1 mM free Mg^2 +.
Binding and thermodynamic parameters Ka (association constant), ΔH (enthalpy change) and stoichiometry were obtained by nonlinear least-squares fitting of experimental data using a single-site binding model of the Origin software package (version 5.0) provided with the instrument. The free energy of binding (ΔG) and entropy change at 25 °C (ΔS) were obtained using the following equations:(1) ΔG=–RTlnKa (2) ΔG=ΔH–TΔS
The experiments were performed in triplicate (except with G418 and kanamycin B, in duplicate) and the error values given in the tables are standard deviations.

[2] = biological target: T1, APH(2″)-IVa; conditions: for Kd/Km: ratio of ITC Kd to steady state Km; for Km / kcat: saturating MgATP (2.5 mM), aminoglycoside 0 to 100 μM, 25 °C, pH 7.5; for Km: na = no detectable activity; for kcat: na = no detectable activity (< 0.001 s^− 1), enzyme up to 5 μM; for phosphotransferase activity: confirmed at 5 μM APH(2″)-IVa, 2.5 mM ATP
Procedure: (§1) Unless otherwise stated, kinetic experiments were carried out in a buffer that contained 50 mM Tris, 40 mM KCl, 1 mM free MgCl2 adjusted to pH 7.5 with HCl at 25 °C. In the case of experiments with CaATP, the buffer was MgCl2-free.
Steady state kinetics were carried out in thermostatically controlled beakers as already described. Unless otherwise stated, the enzyme concentration was 0.5 μM in the presence of various concentrations of aminoglycoside (5 to 100 μM). […] At regular intervals, a volume of 80 μL of the reaction mixture was sampled from the beaker and mixed in a tube containing 40 μL of perchloric acid at 10%. The precipitated protein was then removed by centrifugation at 4 °C, 20 min at 19,000 g. ADP and ATP were separated by HPLC (Waters) on an anion-exchange column (SAX-Partisphere, AIT France). The mobile phase was 200 mM ammonium phosphate–HCl buffer at pH 5.5 and 10% acetonitrile. A 100 μL volume of the quenched reaction mixture was diluted in 900 μL of buffer containing the mobile phase supplemented with 5 N KOH to readjust the pH to 5.5. Quantification of ADP and ATP was obtained by integrating HPLC peaks at 259 nm and their concentrations were reported relative to the enzyme concentration. […] For each injected sample, the concentration of ADP was calculated using the following equation, where [ATP]i is the initial ATP concentration used in the experiment:(3) ADP=ADPpeakarea×ATPi/ADPpeakarea+ATPpeakarea

[3] = biological target: T1, APH(2″)-IVa; assay: Transient kinetics, rapid quench–flow (total ADP); type: biochemical; conditions: 5 μM APH(2″)-IVa, 500 μM ATP, 100 μM aminoglycoside; for Aburst: ± standard error of fit
Procedure: as §1
(§2) Transient kinetic experiments were carried out at 25 °C in a QFM-400 quench–flow (Bio-Logic, France) or in a SF-61 DX2 stopped–flow (TgK Scientific, UK). In the quench–flow method, APH(2″)-IVa, pre-incubated with the aminoglycoside, was mixed with ATP in the apparatus. The mixtures were aged for specific times (from 8 ms to several seconds), quenched in 10% perchloric acid and the ADP and ATP measured by HPLC, as described above. Because perchloric acid dissociates all non-covalent complexes, by this method, concentrations in the reaction mixtures of total ADP, that is to say enzyme-bound ADP plus free ADP, are obtained. In the stopped–flow experiments, a free ADP fluorescent biosensor, MDCC-ParM [28], was included in the ATP solution. By this method, concentrations in the reaction mixtures of free ADP only are obtained. Experiments were carried out as previously described for APH(3′)-IIIa.

[4] = biological target: T1, APH(2″)-IVa; assay: Transient kinetics, stopped–flow with MDCC-ParM ADP biosensor (free ADP); type: biochemical; conditions: 5 μM APH(2″)-IVa, 500 μM ATP, 100 μM aminoglycoside, 50 μM MDCC-ParM
Procedure: as §1, §2

[5] = test system: APH(2″)-IVa; set-up: method as in Toth et al. [5]; conditions: values in brackets, coupled enzyme system; ref Toth et al. [5]; cited from earlier work
[6] = test system: CN[C@@H]1[C@@H](O)[C@@H](O[C@@H]2[C@@H](O)[C@H](O[C@H]3OC(CN)=CC[C@H]3N)[C@@H](N)C[C@H]2N)OC[C@]1(C)O; assay: purified protein, by the assay type; conditions: other: saturating MgATP (2.5 mM), aminoglycoside 0 to 100 μM, 25 °C, pH 7.5, na = no detectable activity
Procedure: (§3) Steady state kinetics were carried out in thermostatically controlled beakers as already described [27]. Unless otherwise stated, the enzyme concentration was 0.5 μM in the presence of various concentrations of aminoglycoside (5 to 100 μM). […] Reactions were initiated by adding a saturating concentration of ATP (2.5 mM) in a thermostatically controlled beaker containing APH(2″)-IVa and aminoglycoside. At regular intervals, a volume of 80 μL of the reaction mixture was sampled from the beaker and mixed in a tube containing 40 μL of perchloric acid at 10%. The precipitated protein was then removed by centrifugation at 4 °C, 20 min at 19,000 g. ADP and ATP were separated by HPLC (Waters) on an anion-exchange column (SAX-Partisphere, AIT France). The mobile phase was 200 mM ammonium phosphate–HCl buffer at pH 5.5 and 10% acetonitrile. A 100 μL volume of the quenched reaction mixture was diluted in 900 μL of buffer containing the mobile phase supplemented with 5 N KOH to readjust the pH to 5.5. Quantification of ADP and ATP was obtained by integrating HPLC peaks at 259 nm and their concentrations were reported relative to the enzyme concentration. Concentrations (in the quenched reaction mixtures) between 0.5 and 500 μM of ADP or ATP gave a linear and equivalent OD259 response. For each injected sample, the concentration of ADP was calculated using the following equation, where [ATP]i is the initial ATP concentration used in the experiment:(3) ADP=ADPpeakarea×ATPi/ADPpeakarea+ATPpeakarea

[7] = test system: NC[C@H]1O[C@H](O[C@H]2[C@H](O)[C@@H](O[C@H]3O[C@H](CO)[C@@H](O)[C@H](N)[C@H]3O)[C@H](N)C[C@@H]2N)[C@H](N)C[C@@H]1O; assay: purified protein, by the assay type; conditions: other: saturating MgATP (2.5 mM), aminoglycoside 0 to 100 μM, 25 °C, pH 7.5, na = no detectable activity
Procedure: as §3

[8] = test system: NC[C@H]1O[C@H](O[C@H]2[C@H](O)[C@@H](O[C@H]3O[C@H](CO)[C@@H](O)[C@H](N)[C@H]3O)[C@H](N)C[C@@H]2N)[C@H](N)[C@@H](O)[C@@H]1O; assay: purified protein, by the assay type; conditions: other: saturating MgATP (2.5 mM), aminoglycoside 0 to 100 μM, 25 °C, pH 7.5, na = no detectable activity
Procedure: as §3

T1 sequence (O68183 entry or part of it): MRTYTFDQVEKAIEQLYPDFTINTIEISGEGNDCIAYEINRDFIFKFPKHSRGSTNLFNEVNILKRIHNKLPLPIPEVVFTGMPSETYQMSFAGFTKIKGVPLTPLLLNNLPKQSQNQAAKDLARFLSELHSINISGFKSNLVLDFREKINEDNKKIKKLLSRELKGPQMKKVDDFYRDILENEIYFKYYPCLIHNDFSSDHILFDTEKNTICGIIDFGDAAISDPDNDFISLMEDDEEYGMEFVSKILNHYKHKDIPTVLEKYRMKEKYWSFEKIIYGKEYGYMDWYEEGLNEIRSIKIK

CN[C@@H]1[C@@H](O)[C@@H](O[C@@H]2[C@@H](O)[C@H](O[C@H]3O[C@H]([C@@H](C)O)[C@@H](O)[C@H](O)[C@H]3N)[C@@H](N)C[C@H]2N)OC[C@]1(C)O [G418]
Kd ([1]; read-out: Kd): 27.5 ± 3.3 µM
Kd/Km [2]: 12.5
Km [2]: 2.2 ± 0.4 µM
kcat [2]: 0.49 ± 0.01 s^− 1
kburst [3]: 2.0 ± 1.1 s^− 1
kss [3]: 0.35 ± 0.04 s^− 1
Aburst [3]: 0.34 ± 0.11 mol/mol
klag [4]: 1.6 ± 0.1 s^− 1
kss [4]: 0.33 ± 0.01 s^− 1

Kanamycin A
Kd, fold larger compared to tobramycin ([1]; ITC Kd comparison): 20 fold
steady state rate constant ([2]; 0.5 μM APH(2″)-IVa, 100 μM kanamycin A, 100 μM MgATP): 0.23 s^− 1
steady state rate constant ([2]; 0.5 μM APH(2″)-IVa, 100 μM kanamycin A, 200 μM MgATP): 0.37 s^− 1
kss, CaATP phosphotransferase activity ([2]; 0.5 μM APH(2″)-IVa, 100 μM kanamycin A, 2 mM CaATP): 0.092 s^− 1
kss, MgATP phosphotransferase activity ([2]; 0.5 μM APH(2″)-IVa, 100 μM kanamycin A, 2 mM MgATP): 0.84 s^− 1
Km, fold lower compared with tobramycin ([2]; in the presence of ATP): 3.3 fold
Kd/Km [2]: 20.0
Kd/Km ([2]; listed as kanamycin A): 20
kburst [3]: 3.4 ± 0.7 s^− 1
kss [3]: 0.77 ± 0.02 s^− 1
Aburst [3]: 0.38 ± 0.04 mol/mol
klag [4]: 3.4 ± 0.1 s^− 1
kss [4]: 0.70 ± 0.01 s^− 1
Km [5]: 3.3 µM
kcat [5]: (0.92 ± 0.01) s^− 1

CN[C@@H]1[C@@H](O)[C@@H](O[C@@H]2[C@@H](O)[C@H](O[C@H]3OC(CN)=CC[C@H]3N)[C@@H](N)C[C@H]2N)OC[C@]1(C)O [Sisomicin]
Kd [1]: 2.3 ± 1.6 µM
Kd/Km [2]: 0.7
kburst [3]: 2.0 ± 0.4 s^− 1
kss [3]: 0.50 ± 0.02 s^− 1
Aburst [3]: 0.48 ± 0.07 mol/mol
klag [4]: 1.6 ± 0.1 s^− 1
kss [4]: 0.48 ± 0.01 s^− 1

APH(2″)-IVa (Enterococcus casseliflavus)
Km [6]: 3.5 ± 0.6 µM
kcat [6]: 0.73 ± 0.02 s^− 1
kcat/Km [6]: 0.209 μM^− 1 s^− 1
Km [7]: 13.2 ± 2.2 µM
kcat [7]: 1.64 ± 0.08 s^− 1
kcat/Km [7]: 0.124 μM^− 1 s^− 1
Km [8]: 12.5 ± 2.9 µM
kcat [8]: 1.69 ± 0.11 s^− 1
kcat/Km [8]: 0.135 μM^− 1 s^− 1

NCC[C@H](O)C(=O)N[C@@H]1C[C@H](N)[C@@H](O[C@H]2O[C@H](CN)[C@@H](O)[C@H](O)[C@H]2O)[C@H](O)[C@H]1O[C@H]1O[C@H](CO)[C@@H](O)[C@H](N)[C@H]1O [Amikacin]
Kd [1]: 82.2 ± 8.9 µM
phosphotransferase activity [2]: absence of activity
Km [5]: 98 µM
kcat [5]: (0.15 ± 0.01) s^− 1

CNC(C)C1CCC(N)C(OC2C(N)CC(N)C(OC3OCC(C)(O)C(NC)C3O)C2O)O1 (centres unmarked) [Gentamicin]
Kd [1]: 9.7 ± 5 µM
Kd/Km [2]: 2.9
Km [2]: 3.3 ± 0.6 µM
kcat [2]: 0.47 ± 0.01 s^− 1

NC[C@H]1O[C@H](O[C@H]2[C@H](O)[C@@H](O[C@H]3O[C@H](CO)[C@@H](O)[C@H](N)[C@H]3O)[C@H](N)C[C@@H]2N)[C@H](N)C[C@@H]1O [Tobramycin]
Kd [1]: 3.9 ± 0.6 µM
affinity of the apoprotein, times greater than for kanamycin A and for amikacin ([1]; ITC Kd comparison): 20 times
Kd/Km [2]: 0.3
kburst [3]: 2.1 ± 0.4 s^− 1
kss [3]: 1.08 ± 0.02 s^− 1
Aburst [3]: 0.44 ± 0.05 mol/mol
klag [4]: 3.3 ± 0.1 s^− 1
kss [4]: 1.05 ± 0.01 s^− 1
Km [5]: 1.5 µM
kcat [5]: (1.80 ± 0.03) s^− 1

NC[C@H]1O[C@H](O[C@H]2[C@H](O)[C@@H](O[C@H]3O[C@H](CO)[C@@H](O)[C@H](N)[C@H]3O)[C@H](N)C[C@@H]2N)[C@H](N)[C@@H](O)[C@@H]1O [Kanamycin B]
Kd [1]: 5.7 ± 1.1 µM
Kd/Km [2]: 0.5

NC[C@@H]1O[C@H](O[C@H]2[C@@H](O)[C@H](O[C@@H]3[C@@H](O)[C@H](N)C[C@H](N)[C@H]3O[C@H]3O[C@H](CO)[C@@H](O)[C@H](O)[C@H]3N)O[C@@H]2CO)[C@H](N)[C@@H](O)[C@@H]1O [Paromomycin]
Kd [1]: 63.6 ± 29 µM
phosphotransferase activity [2]: absence of activity
